Results as given in patent US11389466B2 (priority 2017, dated 2022).
Values joined by “and” are separate entries in the source; they are usually repeats but may differ in a detail not shown here. Equal entries are not always repeated. Where two headings read alike, the source gives them in different places.

Assays:
[1] = test system: Aspergillus fumigatus conidia (adhesion on pneumocytes A549); assay type: cell-based
AFL lectin = AFL lectin (Aspergillus fumigatus, UniProt Q4WW81); assay: biochemical; assay type: binding; conditions: for Stoichiometry: amount of ligand bound to a single protein; for β (β-factor, relative potency per ligand): β=(Kd)monovalent/[(Kd)multivalent×Valency], calculated from methylfucoside
Sequence of AFL lectin (Q4WW81 whole entry): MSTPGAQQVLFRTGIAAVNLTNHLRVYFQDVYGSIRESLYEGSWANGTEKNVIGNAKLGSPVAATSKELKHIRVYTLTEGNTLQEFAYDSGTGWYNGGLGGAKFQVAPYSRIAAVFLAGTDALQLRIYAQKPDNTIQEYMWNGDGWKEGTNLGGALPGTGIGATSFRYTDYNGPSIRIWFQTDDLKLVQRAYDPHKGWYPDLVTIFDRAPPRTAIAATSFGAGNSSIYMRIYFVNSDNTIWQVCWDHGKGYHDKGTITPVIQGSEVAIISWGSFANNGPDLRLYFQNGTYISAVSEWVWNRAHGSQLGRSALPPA

[2] = Table 2, second batch of purified AFL protein

Structure (SMILES)	Kd (AFL lectin)	−TΔS (AFL lectin; Table 1, first AFL batch)	−ΔG (AFL lectin; Table 1, first AFL batch)	−ΔH (AFL lectin; Table 1, first AFL batch)	Stoichiometry (AFL lectin; Table 1, first AFL batch)	β (β-factor, relative potency per ligand) (AFL lectin)	Kd (AFL lectin; [2])	N (stoichiometry) (AFL lectin; [2])	−TΔS (AFL lectin; [2])	−ΔG (AFL lectin; [2])	−ΔH (AFL lectin; [2])	also measured
C[C@@H]1O[C@@H](OCc2cn(CCOCCOCCOCCOCCOCCOCCOCCOCCOCCOCCOCCn3cc(CO[C@@H]4O[C@@H](C)[C@@H](O)[C@@H](O)[C@@H]4O)nn3)nn2)[C@@H](O)[C@H](O)[C@@H]1O [Compound 26]	0.55 µM	36 ± 0.6 kJ/mol	35.9 ± 0.9 kJ/mol	74 ± 6 kJ/mol	2.35 and 2.35 ± 0.31	470						residual adhesion of the conidia on the pneumocytes ([1]; 10 μM in fucose equivalent): 76%
C[C@@H]1O[C@@H](OCc2cn(CCOCCOCCOCCn3cc(CO[C@@H]4O[C@@H](C)[C@@H](O)[C@@H](O)[C@@H]4O)nn3)nn2)[C@@H](O)[C@H](O)[C@@H]1O [Compound 24]	3.8 ± 0.3 µM	46 ± 3 kJ/mol	31 ± 0.2 kJ/mol	77 ± 3 kJ/mol	2.12 and 2.12 ± 0.03	68						decrease of the adhesion of the conidia ([1]; 100 μM in fucose equivalent): 37%
CC1OC(OCCOCCOCCOCCOCc2cn(CC3OC4OC5C(Cn6cc(COCCOCCOCCOCCOC7OC(C)C(O)C(O)C7O)nn6)OC(OC6C(Cn7cc(COCCOCCOCCOCCOC8OC(C)C(O)C(O)C8O)nn7)OC(OC7C(Cn8cc(COCCOCCOCCOCCOC9OC(C)C(O)C(O)C9O)nn8)OC(OC8C(Cn9cc(COCCOCCOCCOCCOC%10OC(C)C(O)C(O)C%10O)nn9)OC(OC9C(Cn%10cc(COCCOCCOCCOCCOC%11OC(C)C(O)C(O)C%11O)nn%10)OC(OC3C(O)C4O)C(O)C9O)C(O)C8O)C(O)C7O)C(O)C6O)C(O)C5O)nn2)C(O)C(O)C1O (stereo not drawn) [Compound 30]		181 ± 8 kJ/mol	38.4 ± 0.2 kJ/mol	220 ± 8 kJ/mol	0.77 ± 0.04	479	0.13 ± 0.01 µM	0.95 ± 0.02	169.4 ± 0.6 kJ/mol	39.3 ± 0.3 kJ/mol	208.9 ± 1.0 kJ/mol	Kd (AFL lectin; Table 1, first AFL batch): 0.18 µM; Kd (AFL lectin; first AFL batch): 0.18 µM; Kd values (in words) (AFL lectin; first AFL batch): sub-micromolar range; enthalpic contribution, times higher than the reference monovalent compound 33 (AFL lectin; first AFL batch): 3.7; increase of the −TΔS factor versus the reference monovalent compound (AFL lectin; first AFL batch): 4.7
CC1OC(OCc2cn(CCOCCOCCOCCSCC[Si]34O[Si]5(CCSCCOCCOCCOCCn6cc(COC7OC(C)C(O)C(O)C7O)nn6)O[Si]6(CCSCCOCCOCCOCCn7cc(COC8OC(C)C(O)C(O)C8O)nn7)O[Si](CCSCCOCCOCCOCCn7cc(COC8OC(C)C(O)C(O)C8O)nn7)(O3)O[Si]3(CCSCCOCCOCCOCCn7cc(COC8OC(C)C(O)C(O)C8O)nn7)O[Si](CCSCCOCCOCCOCCn7cc(COC8OC(C)C(O)C(O)C8O)nn7)(O4)O[Si](CCSCCOCCOCCOCCn4cc(COC7OC(C)C(O)C(O)C7O)nn4)(O5)O[Si](CCSCCOCCOCCOCCn4cc(COC5OC(C)C(O)C(O)C5O)nn4)(O6)O3)nn2)C(O)C(O)C1O (stereo not drawn) [Compound 40]	0.4 ± 0.07 µM											N (stoichiometry) (AFL lectin): 0.84 ± 0.02; −TΔS (AFL lectin): 216.8 ± 16.9 kJ/mol; −ΔG (AFL lectin): 36.6 ± 0.4 kJ/mol; −ΔH (AFL lectin): 252.9 ± 17.0 kJ/mol
CC1OC(OCc2cn(CC3OC4OC5C(Cn6cc(COC7OC(C)C(O)C(O)C7O)nn6)OC(OC6C(Cn7cc(COC8OC(C)C(O)C(O)C8O)nn7)OC(OC7C(Cn8cc(COC9OC(C)C(O)C(O)C9O)nn8)OC(OC8C(Cn9cc(COC%10OC(C)C(O)C(O)C%10O)nn9)OC(OC9C(Cn%10cc(COC%11OC(C)C(O)C(O)C%11O)nn%10)OC(OC3C(O)C4O)C(O)C9O)C(O)C8O)C(O)C7O)C(O)C6O)C(O)C5O)nn2)C(O)C(O)C1O (stereo not drawn) [Compound 44]							1.94 ± 0.5 µM	1.36 ± 0.01	90.4 ± 2.6 kJ/mol	32.7 ± 0.7 kJ/mol	122.9 ± 1.9 kJ/mol	
OC[C@H]1O[C@@H]2O[C@H]3[C@H](O)[C@@H](O)[C@@H](O[C@H]4[C@H](O)[C@@H](O)[C@@H](O[C@H]5[C@H](O)[C@@H](O)[C@@H](O[C@H]6[C@H](O)[C@@H](O)[C@@H](O[C@H]7[C@H](O)[C@@H](O)[C@@H](O[C@H]1[C@H](O)[C@H]2O)O[C@@H]7CO)O[C@@H]6CO)O[C@@H]5CO)O[C@@H]4CO)O[C@@H]3CO [free α-cyclodextrine, α-cyclodextrine, reference compound]												affinity for the AFL lectin (in words) (AFL lectin): no affinity
CO[C@@H]1O[C@@H](C)[C@@H](O)[C@@H](O)[C@@H]1O [αMeFuc, methylfucoside, reference compound]		26.8 kJ/mol	16.9 kJ/mol	48 kJ/mol	5			3.3 ± 0.42	41.7 ± 6.2 kJ/mol	22.6 ± 0.02 kJ/mol	64.3 ± 6.2 kJ/mol	Kd (AFL lectin; Table 1, first AFL batch, read-out: Kd): 517 µM; Kd (AFL lectin; Table 2, second batch of purified AFL protein, read-out: Kd): 110 µM
C[C@@H]1O[C@@H](OCc2cn(CCOCCOCCOCCO)nn2)[C@@H](O)[C@H](O)[C@@H]1O [Compound 33, reference compound]	167 µM	38 ± 9 kJ/mol	22 ± 1 kJ/mol	60 ± 8 kJ/mol	4.0 ± 0.3	3						anti-adhesive activity (in words) ([1]; concentrations of 1 and 10 μM in fucose equivalent): absence of anti-adhesive activity
CC1OC(OCCOCCOCc2cn(CC3OC4OC5C(Cn6cc(COCCOCCOC7OC(C)C(O)C(O)C7O)nn6)OC(OC6C(Cn7cc(COCCOCCOC8OC(C)C(O)C(O)C8O)nn7)OC(OC7C(Cn8cc(COCCOCCOC9OC(C)C(O)C(O)C9O)nn8)OC(OC8C(Cn9cc(COCCOCCOC%10OC(C)C(O)C(O)C%10O)nn9)OC(OC9C(Cn%10cc(COCCOCCOC%11OC(C)C(O)C(O)C%11O)nn%10)OC(OC3C(O)C4O)C(O)C9O)C(O)C8O)C(O)C7O)C(O)C6O)C(O)C5O)nn2)C(O)C(O)C1O (stereo not drawn) [Compound 29]		125.5 ± 0.6 kJ/mol	35.5 ± 0.1 kJ/mol	161 ± 1 kJ/mol	1.01 ± 0.02	144	0.53 ± 0.04 µM	1.20 ± 0.09	136.1 ± 15.1 kJ/mol	35.9 ± 0.2 kJ/mol	171.8 ± 15.3 kJ/mol	formation of spore agglomerates (microscope observation) ([1]; A. fumigatus spores, compound 29 at 10 μM): formation of A. fumigatus spore agglomerates; Kd (AFL lectin; Table 1, first AFL batch): 0.6 µM; Kd values (in words) (AFL lectin; first AFL batch): sub-micromolar range; enthalpic contribution, times higher than the reference monovalent compound 33 (AFL lectin; first AFL batch): 2.7; increase of the −TΔS factor versus the reference monovalent compound (AFL lectin; first AFL batch): 3.3
